Assay results: US20250282818A1, “SYRBACTIN MACROLACTAMS AND UNNATURAL ANALOGS AS PROTEASOME INHIBITORS FOR THE TREATMENT OF MULTIPLE MYELOMA AND CHEMOENZYMATIC SYNTHESIS THEREOF” (UNIVERSITY OF FLORIDA RESEARCH FOUNDATION,INCORPORATED, priority 2022, published 2025)
Entries after “also recorded” stand apart in the source; their conditions may differ.

What was measured:
[1] = test system: human MM (RPMI8226, U266, H929) and MCL (JeKo-1, HBL2, Mino) cell lines; test: MM and MCL cytotoxicity EC50 measurements, cell line panel; format: cell-based; settings: 3 MM and 3 MCL cell lines, 48 hours
Method: (§1) Finally, we sought to compare the new lead analog (50) against the clinical drug bortezomib. It has been shown that in addition to MM, mantle cell lymphoma (MCL) is also sensitive to proteasome inhibition. Indeed, bortezomib itself is FDA-approved for the treatment of MCL.^23 Therefore, we compared 50 and bortezomib in 3 different cell lines of both MM and MCL (FIG. 6E, FIG. 7).
(§2) Cells were seeded in a 96-well plate (20,000 cells/well) in cell culture media supplemented with indicated compounds (1,000× stock in DMSO) or DMSO and cultured for 48 hours. Toxicity was determined using the WST-1 assay (Roche) according to the protocol of the manufacturer. (n=3)

[2] = test system: upregulated protein expression; test: Global proteomics experiments; format: cell-based, human
[3] = target: T1, proteasome subunit β5 (Homo sapiens, UniProt P28074); test: Proteasome inhibition IC50 measurements in RPMI 8226 cells, substrate Suc-LLVY-AMC (β5); format: cell-based
T1 construct: Cells were then collected and lysed; endogenous in cells; host or cells: RPMI 8226
Source text: Our preliminary series of analogs (FIG. 3), including the natural product glidobactin A (2), were synthesized by largely the same route (FIG. 2).^13 Desoxycepafungin (38) was synthesized from Boc-Lys(Boc)-OH to assess the role of the macrocycle hydroxylation in 1 towards proteasome inhibition. The saturated cepafungin analog 39 was designed to address the possible role of rigidity in the tail fragment induced by the diene seen in many natural cepafungins and glidobactins. An analog bearing unsaturation at its macrocyclic lysine was envisioned to provide a head-to-head comparison between the cepafungin and syringolin A (4) macrocyclic core. […] Proteasome subunit β5 IC50 values were determined in situ in RPMI 8226 cells (FIG. 3). In close agreement with prior measurement of β5 IC50 for natural 1 and 2 in purified yeast proteasome,^8 in our hands the additional branching methyl in 1 indeed leads to ca. 5-fold improved IC50 compared to 2 in RPMI 8226 cells. […] Likewise, saturation of the fatty acid fragment in 39 causes ca. 14-fold decrease in β5 inhibition. This preliminary series of analogs highlighted that the macrocyclic hydroxylation, fatty acid unsaturation, and terminal lipid functionality are critical for potent proteasome inhibitory activity.
(§3) Cellular assays were performed with human multiple myeloma cell line RPMI 8226. First, relative inhibition of proteasome subunits β5 and β2 for all analogs and the natural product was measured at 30 nM compound concentration. Following incubation of the analogs in cell culture for 6 hours, cells were lysed and fluorogenic subunit-specific peptide substrates Suc-LLVY-AMC (β5) or Ac-RLR-AMC (β2) were incubated with the lysates, and fluorescence readings provided relative proteasome activity levels with respect to DMSO (FIG. 6A). Next, cytotoxicity screening was performed at 30 nM and 100 nM concentrations for better coverage of dynamic range (FIG. 6B). […] Therefore, the improved cytotoxicity of phenyl cepafungin 50 likely results from a more pronounced loss of β5 function in RPMI 8226 cells. This drastic increase in proteasome inhibition may be due to pi-stacking of the lipid tail phenyl ring with the β6 subunit residues Tyr106 and/or Tyr5. The β2 subunit-bound natural product has residues Tyr102 and Phe103 on the adjacent β3 subunit oriented further away from the terminal lipid methyl groups, and presumably would not facilitate pi-stacking to the extent possible at the adjacent β6 subunit (see FIG. 4, FIG. 9). […]
(§4) RPMI 8226 cells were seeded in a 6-well plate (1,000,000 cells/well) in cell culture media supplemented with indicated compounds (1,000× stock in DMSO) or DMSO and cultured for 6 hours. […] The plates were incubated at 37° C. for one hour and fluorescence was read at A360ex/A460em. […]

[4] = target: T2, 20S proteasome (Homo sapiens, UniProt P28074+Q99436); test: In-gel competitive profiling and in situ competitive LC-MS/MS based chemoproteomics; format: cell-based; settings: human MM cells, alkyne-tagged probe analog
T2 construct: endogenous in cells
T2 sequence (P28074 60-263): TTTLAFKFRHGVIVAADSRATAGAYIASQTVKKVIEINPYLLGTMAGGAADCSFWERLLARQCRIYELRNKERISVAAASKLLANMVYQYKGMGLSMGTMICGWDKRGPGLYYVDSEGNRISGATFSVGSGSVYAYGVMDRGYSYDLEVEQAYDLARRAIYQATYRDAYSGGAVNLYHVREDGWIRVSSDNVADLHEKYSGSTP
T2 sequence (Q99436 44-277): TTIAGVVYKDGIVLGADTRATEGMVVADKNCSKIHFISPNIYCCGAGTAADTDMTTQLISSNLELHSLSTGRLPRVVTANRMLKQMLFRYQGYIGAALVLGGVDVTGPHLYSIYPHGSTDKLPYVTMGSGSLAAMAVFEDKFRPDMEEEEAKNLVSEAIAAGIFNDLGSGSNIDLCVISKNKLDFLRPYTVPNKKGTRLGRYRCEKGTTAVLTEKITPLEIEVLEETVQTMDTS
Source text: Prior to our work, a major knowledge gap in the bioactivity of cepafungin was its engagement of the proteasome in human MM cells and selectivity in targeting the proteasome over a multitude of other proteases. To address this, an alkyne-tagged probe analog was synthesized by our chemoenzymatic route and used for classical chemoproteomics studies.

[5] = target: β5 subunit of purified yeast proteasome (Saccharomyces cerevisiae, UniProt P23724+P30656); settings: literature ref. 8; cited from earlier work
[6] = test system: β2 and β5 subunits; settings: introduction, no test specified; cited from earlier work
[7] = test system: proteasome subunit β2; test: Proteasome inhibition IC50 measurements in RPMI 8226 cells, substrate Ac-RLR-AMC (β2); format: cell-based, human; settings: 6 hours
Method: as §3, with “Tyr5.” for “Tyr5. The β2 subunit-bound natural product has residues Tyr102 and Phe103 on the adjacent β3 subunit oriented further away from the terminal lipid methyl groups, and presumably would not facilitate pi-stacking to the extent possible at the adjacent β6 subunit (see FIG. 4, FIG. 9).”
as §4

[8] = test system: RPMI 8226 cells; test: RPMI 8226 cytotoxicity EC50 measurements (WST-1); format: cell-based, human
Method: (§5) RPMI 8226 cells were seeded in a 96-well plate (20,000 cells/well) in cell culture media supplemented with indicated compounds (1,000× stock in DMSO) or DMSO and cultured for 48 hours. Toxicity was determined using the WST-1 assay (Roche) according to the protocol of the manufacturer. (n=3)
as §5, with “Cytotoxicity of phenyl cepafungin (50) and hybrid analog (S39) in RPMI 8226 RPMI” for “RPMI”

[9] = test system: RPMI 8226 cells; test: RPMI8226 cytotoxicity screening (WST-1); format: cell-based, human; settings: 30 nM and 100 nM, cytotoxicities track with proteasome inhibition at 30 nM
Method: Cellular assays were performed with human multiple myeloma cell line RPMI 8226. First, relative inhibition of proteasome subunits β5 and β2 for all analogs and the natural product was measured at 30 nM compound concentration. Following incubation of the analogs in cell culture for 6 hours, cells were lysed and fluorogenic subunit-specific peptide substrates Suc-LLVY-AMC (β5) or Ac-RLR-AMC (β2) were incubated with the lysates, and fluorescence readings provided relative proteasome activity levels with respect to DMSO (FIG. 6A). Next, cytotoxicity screening was performed at 30 nM and 100 nM concentrations for better coverage of dynamic range (FIG. 6B). […] Therefore, the improved cytotoxicity of phenyl cepafungin 50 likely results from a more pronounced loss of β5 function in RPMI 8226 cells. This drastic increase in proteasome inhibition may be due to pi-stacking of the lipid tail phenyl ring with the β6 subunit residues Tyr106 and/or Tyr5. The β2 subunit-bound natural product has residues Tyr102 and Phe103 on the adjacent β3 subunit oriented further away from the terminal lipid methyl groups, and presumably would not facilitate pi-stacking to the extent possible at the adjacent β6 subunit (see FIG. 4, FIG. 9). […] These combined modifications were made in hopes that the effects of both substitutions would be additive.
[…] Toxicity was determined using the WST-1 assay (Roche) according to the protocol of the manufacturer. (n=3)

[10] = test system: U266; test: MM and MCL cytotoxicity EC50 measurements, U266; format: cell-based; settings: Homo sapiens, U-266; U266, 48 hours, WST-1
Method: as §1, §2

| fold lower β5 IC50 than 1 / fold greater β5 inhibitory activity ([3]; RPMI 8226 cells, 6 hours) [fold] | β2 subunit IC50 compared with 1, in words [7] | SMILES | cytotoxicity compared with bortezomib, in words [1] | overlap in upregulated protein expression between 1 and bortezomib [2] | fold improved β5 IC50 of 1 compared to 2 ([3]; in situ in RPMI 8226 cells) | fold improved β5 inhibition of 1 compared to desoxy-cepafungin analog 38 ([3]; in situ in RPMI 8226 cells) | selectivity of proteasome engagement, in words [4] | selectivity of proteasome engagement, in words ([4]; listed as cepafungin) | fold improvement of β5-subunit inhibition compared to glidobactin A (2) [5] | proteasome inhibitory activity, in words [6] | EC50 ([8]; Homo sapiens, RPMI 8226, 48 hours, WST-1) [nM] | fold greater cytotoxicity than parent cepafungin I 1 ([8]; RPMI 8226, EC50 comparison) | potency compared with parent natural product 1 in screening (FIG. 6A, 6B) [9] | EC50 [10] [nM] |
| --- | --- | --- | --- | --- | --- | --- | --- | --- | --- | --- | --- | --- | --- | --- |
|  |  | CC(C)C[C@H](NC(=O)[C@H](Cc1ccccc1)NC(=O)c1cnccn1)B(O)O [bortezomib, reference compound] | low-nanomolar cytotoxicity | high degree of overlap in upregulated protein expression |  |  |  |  |  |  |  |  |  |  |
|  |  | CC(C)CCCCC/C=C/C=C\C(=O)N[C@H](C(=O)N[C@H]1C[C@H](O)CCNC(=O)/C=C\[C@H](C)NC1=O)[C@@H](C)O [compound 1, cepafungin I] |  | high degree of overlap in upregulated protein expression | ca. 5 fold | ca. 11 fold | exceptional selectivity | exceptional selectivity towards several proteasome subunits | ca. 5 fold | most potent proteasome inhibitor among the syrbactins; also recorded: low nanomolar inhibitory activity |  |  |  |  |
| 7 | roughly similar IC50 | C[C@H]1/C=C/C(=O)NCC[C@H](O)C[C@H](NC(=O)[C@@H](NC(=O)/C=C/C=C/CCCCCc2ccccc2)[C@@H](C)O)C(=O)N1 [compound 50, (2E,4E)-N-((2S,3R)-3-hydroxy-1-(((5S,8S,10S,E)-10-hydroxy-5-methyl-2,7-dioxo-1,6-diazacyclododec-3-en-8-yl)amino)-1-oxobutan-2-yl)-10-phenyldeca-2,4-dienamide] | similarly low-nanomolar cytotoxicity in all cell lines as bortezomib except for U266 |  |  |  |  |  |  |  | 3 | 4-5 fold | more potent than the parent natural product 1; also recorded: most potent | ~20 |
